Patent US20230085307A1, “PYRIDAZINONE COMPOUND AND HERBICIDE” (NISSAN CHEMICAL CORPORATION, priority 2019, published 2023)

Columns and labels:
lambsquarters [1] = assay: Test Example 4: herbicidal effect by soil treatment (Table 19, symbol O); format: in vivo, lambsquarters (Chenopodium album); details: amount of applied herbicide 320 g/ha
Procedure, shortened: (§1)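 In this soil treatment, the formulated compound reached the seeds only through the soil: seeds were buried about 1.5 cm deep in sterilized diluvial soil, then the diluted emulsion was sprayed over the surface. After three weeks at 25° C. to 30° C. in a greenhouse, effects were graded on criteria from an earlier test.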

velvetleaf [2] = assay: Test Example 5: herbicidal effect by foliage application, plastic box (Table 20, symbol M); format: in vivo, velvetleaf (Abutilon theophrasti); details: foliage application, 320 g/ha, three weeks after application
Procedure, shortened: (§2)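 Plants were sown into sterilized diluvial soil under about 1.5 cm cover and kept in a greenhouse at 25° C. to 30° C. Fourteen days on, foliage received an even spray of the diluted emulsion. Herbicidal or crop effect was judged three weeks afterwards.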

Japanese bulrush = assay: Test Example 1: herbicidal activity, application before weed generation under submerged conditions (Table 16, symbol B); format: in vivo, Japanese bulrush (Schoenoplectus juncoides); details: amount of applied herbicide 320 g/ha
Procedure, shortened: (§3)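 Submerged Wagner pots (alluvial soil, 4 cm water) sown with weed seeds and planted with 2.5-leaf rice seedlings; emulsifiable concentrate diluted in water applied to water surface on sowing day. Held in greenhouse at 25-30 °C; injury scored 0-5 by herbicidal rate after three weeks.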

late watergrass = assay: Test Example 1: herbicidal activity, application before weed generation under submerged conditions (Table 16, symbol A); format: in vivo, late watergrass (Echinochloa oryzicola); details: amount of applied herbicide 320 g/ha
Procedure, shortened: as §3

Italian ryegrass [3] = assay: Test Example 4: herbicidal effect by soil treatment (Table 19, symbol K); format: in vivo, Italian ryegrass (Lolium multiflorum); details: amount of applied herbicide 320 g/ha
Procedure, shortened: as §1

wild oat [4] = assay: Test Example 5: herbicidal effect by foliage application, plastic box (Table 20, symbol I); format: in vivo, wild oat (Avena fatua); details: foliage application, 320 g/ha, three weeks after application
Procedure, shortened: as §2

windgrass [5] = assay: Test Example 5: herbicidal effect by foliage application, plastic box (Table 20, symbol L); format: in vivo, windgrass (Apera spica-venti); details: foliage application, 320 g/ha, three weeks after application
Procedure, shortened: as §2

blackgrass [6] = assay: Test Example 4: herbicidal effect by soil treatment (Table 19, symbol J); format: in vivo, blackgrass (Alopecurus myosuroides); details: amount of applied herbicide 320 g/ha
Procedure, shortened: as §1

chickweed [7] = assay: Test Example 5: herbicidal effect by foliage application, plastic box (Table 20, symbol P); format: in vivo, common chickweed (Stellaria media); details: foliage application, 320 g/ha, three weeks after application
Procedure, shortened: as §2

southern crabgrass [8] = assay: Test Example 4: herbicidal effect by soil treatment (Table 19, symbol F); format: in vivo, southern crabgrass (Digitaria ciliaris); details: amount of applied herbicide 320 g/ha
Procedure, shortened: as §1

chickweed [9] = assay: Test Example 4: herbicidal effect by soil treatment (Table 19, symbol P); format: in vivo, common chickweed (Stellaria media); details: amount of applied herbicide 320 g/ha
Procedure, shortened: as §1

green foxtail [10] = assay: Test Example 4: herbicidal effect by soil treatment (Table 19, symbol G); format: in vivo, green foxtail (Setaria viridis); details: amount of applied herbicide 320 g/ha
Procedure, shortened: as §1

persian speedwell [11] = assay: Test Example 5: herbicidal effect by foliage application, plastic box (Table 20, symbol R); format: in vivo, Persian speedwell (Veronica persica); details: foliage application, 320 g/ha, three weeks after application
Procedure, shortened: as §2

barnyard grass [12] = assay: Test Example 5: herbicidal effect by foliage application, plastic box (Table 20, symbol H); format: in vivo, barnyard grass (Echinochloa crus-galli); details: foliage application, 320 g/ha, three weeks after application
Procedure, shortened: as §2

persian speedwell [13] = assay: Test Example 4: herbicidal effect by soil treatment (Table 19, symbol R); format: in vivo, Persian speedwell (Veronica persica); details: amount of applied herbicide 320 g/ha
Procedure, shortened: as §1

southern crabgrass [14] = assay: Test Example 5: herbicidal effect by foliage application, plastic box (Table 20, symbol F); format: in vivo, southern crabgrass (Digitaria ciliaris); details: foliage application, 320 g/ha, three weeks after application
Procedure, shortened: as §2

Italian ryegrass [15] = assay: Test Example 5: herbicidal effect by foliage application, plastic box (Table 20, symbol K); format: in vivo, Italian ryegrass (Lolium multiflorum); details: foliage application, 320 g/ha, three weeks after application
Procedure, shortened: as §2

oval-leafed pondweed = assay: Test Example 1: herbicidal activity, application before weed generation under submerged conditions (Table 16, symbol C); format: in vivo, oval-leafed pondweed (Monochoria vaginalis); details: amount of applied herbicide 320 g/ha
Procedure, shortened: as §3

Chinese sprangletop = assay: Test Example 3: herbicidal effect by foliage application, Wagner pot (Table 18, symbol D); format: in vivo, chinese sprangletop (Leptochloa chinensis); details: 320 g/ha
Procedure, shortened: (§4)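 Plants were sown in alluvial soil held under 0.1–0.5 cm standing water and grown 14 days in a greenhouse at 25–30 °C. An emulsifiable formulation, water-diluted to the set dose, was then sprayed onto the foliage, and effects were scored three weeks later using previously defined criteria.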

blackgrass [16] = assay: Test Example 5: herbicidal effect by foliage application, plastic box (Table 20, symbol J); format: in vivo, blackgrass (Alopecurus myosuroides); details: foliage application, 320 g/ha, three weeks after application
Procedure, shortened: as §2

green foxtail [17] = assay: Test Example 5: herbicidal effect by foliage application, plastic box (Table 20, symbol G); format: in vivo, green foxtail (Setaria viridis); details: foliage application, 320 g/ha, three weeks after application
Procedure, shortened: as §2

false cleavers = assay: Test Example 4: herbicidal effect by soil treatment (Table 19, symbol Q); format: in vivo, false cleavers (Galium spurium); details: amount of applied herbicide 320 g/ha
Procedure, shortened: as §1

windgrass [18] = assay: Test Example 4: herbicidal effect by soil treatment (Table 19, symbol L); format: in vivo, windgrass (Apera spica-venti); details: amount of applied herbicide 320 g/ha
Procedure, shortened: as §1

lambsquarters [19] = assay: Test Example 5: herbicidal effect by foliage application, plastic box (Table 20, symbol O); format: in vivo, lambsquarters (Chenopodium album); details: foliage application, 320 g/ha, three weeks after application
Procedure, shortened: as §2

rice flat sedge = assay: Test Example 3: herbicidal effect by foliage application, Wagner pot (Table 18, symbol E); format: in vivo, rice flat sedge (Cyperus iria); details: 320 g/ha
Procedure, shortened: as §4

velvetleaf [20] = assay: Test Example 4: herbicidal effect by soil treatment (Table 19, symbol M); format: in vivo, velvetleaf (Abutilon theophrasti); details: amount of applied herbicide 320 g/ha
Procedure, shortened: as §1

barnyard grass [21] = assay: Test Example 3: herbicidal effect by foliage application, Wagner pot (Table 18, symbol H); format: in vivo, barnyard grass (Echinochloa crus-galli); details: 320 g/ha
Procedure, shortened: as §4

redroot pigweed [22] = assay: Test Example 4: herbicidal effect by soil treatment (Table 19, symbol N); format: in vivo, redroot pigweed (Amaranthus retroflexus); details: amount of applied herbicide 320 g/ha
Procedure, shortened: as §1

redroot pigweed [23] = assay: Test Example 5: herbicidal effect by foliage application, plastic box (Table 20, symbol N); format: in vivo, redroot pigweed (Amaranthus retroflexus); details: foliage application, 320 g/ha, three weeks after application
Procedure, shortened: as §2

wild oat [24] = assay: Test Example 4: herbicidal effect by soil treatment (Table 19, symbol I); format: in vivo, wild oat (Avena fatua); details: amount of applied herbicide 320 g/ha
Procedure, shortened: as §1

barnyard grass [25] = assay: Test Example 4: herbicidal effect by soil treatment (Table 19, symbol H); format: in vivo, barnyard grass (Echinochloa crus-galli); details: amount of applied herbicide 320 g/ha
Procedure, shortened: as §1

Compound	M: velvetleaf, herbicidal effect grade (velvetleaf [2])	Herbicidal effect, B: Japanese bulrush (Japanese bulrush)	Herbicidal effect, A: late watergrass (late watergrass)	I: wild oat, herbicidal effect grade (wild oat [4])	L: windgrass, herbicidal effect grade (windgrass [5])	P: chickweed, herbicidal effect grade (chickweed [7])	R: persian speedwell, herbicidal effect grade (persian speedwell [11])	H: barnyard grass, herbicidal effect grade (barnyard grass [12])	F: southern crabgrass, herbicidal effect grade (southern crabgrass [14])	K: Italian ryegrass, herbicidal effect grade (Italian ryegrass [15])	Herbicidal effect, C: oval-leafed pondweed (oval-leafed pondweed)	herbicidal effect on Chinese sprangletop (D) (Chinese sprangletop)	J: blackgrass, herbicidal effect grade (blackgrass [16])	G: green foxtail, herbicidal effect grade (green foxtail [17])	O: lambsquarters, herbicidal effect grade (lambsquarters [19])	herbicidal effect on rice flat sedge (E) (rice flat sedge)	herbicidal effect on barnyard grass (H) (barnyard grass [21])	N: redroot pigweed, herbicidal effect grade (redroot pigweed [23])	also measured
COc1ccccc1-c1sc2cc(Cl)ccc2c1-c1c(O)c(C)nn(C)c1=O [3-035]	4 (Herbicidal rate of 70% or more and less than 90%)	3 (Herbicidal rate of 40% or more and less than 70%)	3 (Herbicidal rate of 40% or more and less than 70%)	3 (Herbicidal rate of 40% or more and less than 70%)	4 (Herbicidal rate of 70% or more and less than 90%)	5 (Herbicidal rate of 90% or more (almost completely withered))	5 (Herbicidal rate of 90% or more (almost completely withered))	4 (Herbicidal rate of 70% or more and less than 90%)	4 (Herbicidal rate of 70% or more and less than 90%)	3 (Herbicidal rate of 40% or more and less than 70%)	0 (Herbicidal rate of 5% or less (almost no effect))	3 (Herbicidal rate of 40% or more and less than 70%)	3 (Herbicidal rate of 40% or more and less than 70%)	5 (Herbicidal rate of 90% or more (almost completely withered))	4 (Herbicidal rate of 70% or more and less than 90%)	5 (Herbicidal rate of 90% or more (almost completely withered))	4 (Herbicidal rate of 70% or more and less than 90%)	4 (Herbicidal rate of 70% or more and less than 90%)	O: lambsquarters, herbicidal effect grade (lambsquarters [1]): 5 (Herbicidal rate of 90% or more (almost completely withered)); K: Italian ryegrass, herbicidal effect grade (Italian ryegrass [3]): 2 (Herbicidal rate of 20% or more and less than 40%); J: blackgrass, herbicidal effect grade (blackgrass [6]): 3 (Herbicidal rate of 40% or more and less than 70%); F: southern crabgrass, herbicidal effect grade (southern crabgrass [8]): 3 (Herbicidal rate of 40% or more and less than 70%); P: chickweed, herbicidal effect grade (chickweed [9]): 4 (Herbicidal rate of 70% or more and less than 90%); G: green foxtail, herbicidal effect grade (green foxtail [10]): 4 (Herbicidal rate of 70% or more and less than 90%); R: persian speedwell, herbicidal effect grade (persian speedwell [13]): 1 (Herbicidal rate of 5% or more and less than 20%); Q: false cleavers, herbicidal effect grade (false cleavers): 3 (Herbicidal rate of 40% or more and less than 70%); L: windgrass, herbicidal effect grade (windgrass [18]): 0 (Herbicidal rate of 5% or less (almost no effect)); M: velvetleaf, herbicidal effect grade (velvetleaf [20]): 3 (Herbicidal rate of 40% or more and less than 70%); N: redroot pigweed, herbicidal effect grade (redroot pigweed [22]): 4 (Herbicidal rate of 70% or more and less than 90%); I: wild oat, herbicidal effect grade (wild oat [24]): 0 (Herbicidal rate of 5% or less (almost no effect)); H: barnyard grass, herbicidal effect grade (barnyard grass [25]): 5 (Herbicidal rate of 90% or more (almost completely withered))
Cc1nn(C)c(=O)c(-c2c(-c3ccc(OC(F)F)cc3)sc3cc(F)ccc23)c1O [3-141]	5 (Herbicidal rate of 90% or more (almost completely withered))	0 (Herbicidal rate of 5% or less (almost no effect))	3 (Herbicidal rate of 40% or more and less than 70%)	1 (Herbicidal rate of 5% or more and less than 20%)	5 (Herbicidal rate of 90% or more (almost completely withered))	5 (Herbicidal rate of 90% or more (almost completely withered))	5 (Herbicidal rate of 90% or more (almost completely withered))	4 (Herbicidal rate of 70% or more and less than 90%)	0 (Herbicidal rate of 5% or less (almost no effect))	5 (Herbicidal rate of 90% or more (almost completely withered))	0 (Herbicidal rate of 5% or less (almost no effect))	2 (Herbicidal rate of 20% or more and less than 40%)	4 (Herbicidal rate of 70% or more and less than 90%)	5 (Herbicidal rate of 90% or more (almost completely withered))	5 (Herbicidal rate of 90% or more (almost completely withered))	5 (Herbicidal rate of 90% or more (almost completely withered))	5 (Herbicidal rate of 90% or more (almost completely withered))	5 (Herbicidal rate of 90% or more (almost completely withered))	Herbicidal effect by soil treatment, O: lambsquarters (lambsquarters [1]): 5 (Herbicidal rate of 90% or more (almost completely withered)); Herbicidal effect by soil treatment, K: Italian ryegrass (Italian ryegrass [3]): 3 (Herbicidal rate of 40% or more and less than 70%); Herbicidal effect by soil treatment, J: blackgrass (blackgrass [6]): 3 (Herbicidal rate of 40% or more and less than 70%); Herbicidal effect by soil treatment, F: southern crabgrass (southern crabgrass [8]): 0 (Herbicidal rate of 5% or less (almost no effect)); Herbicidal effect by soil treatment, P: chickweed (chickweed [9]): 3 (Herbicidal rate of 40% or more and less than 70%); Herbicidal effect by soil treatment, G: green foxtail (green foxtail [10]): 1 (Herbicidal rate of 5% or more and less than 20%); Herbicidal effect by soil treatment, R: persian speedwell (persian speedwell [13]): 4 (Herbicidal rate of 70% or more and less than 90%); Herbicidal effect by soil treatment, Q: false cleavers (false cleavers): 0 (Herbicidal rate of 5% or less (almost no effect)); Herbicidal effect by soil treatment, L: windgrass (windgrass [18]): 3 (Herbicidal rate of 40% or more and less than 70%); Herbicidal effect by soil treatment, M: velvetleaf (velvetleaf [20]): 3 (Herbicidal rate of 40% or more and less than 70%); Herbicidal effect by soil treatment, N: redroot pigweed (redroot pigweed [22]): 5 (Herbicidal rate of 90% or more (almost completely withered)); Herbicidal effect by soil treatment, I: wild oat (wild oat [24]): 0 (Herbicidal rate of 5% or less (almost no effect)); Herbicidal effect by soil treatment, H: barnyard grass (barnyard grass [25]): 3 (Herbicidal rate of 40% or more and less than 70%)
